Measurements from patent publication US4410516A, “1-N(αHydroxy-ω-aminoalkanoyl) derivatives of 5,3',4'-trideoxy- or 5,3', 4'-trideoxy-6'-N- methyl- or 5, 3', 4',6"-tetradeoxykannamyci B and production thereof” (Zaidan Hojin Biseibutsu Kagaku Kenkyu Kai, priority 1981, dated 1983).
In brackets after ≈: the same amount, converted by molar mass. Read-outs that look alike come from different tables or passages of the source.

How the values were obtained:
[1] = system: Providencia 2991; assay: Minimum inhibitory concentration, serial dilution on nutrient agar; type: cell-based; conditions: 37° C., 18 hours incubation
[2] = system: Escherichia coli W677; assay: as above; type: cell-based
[3] = system: Shigella dysenteriae JS 11910; assay: as above; type: cell-based; conditions: JS11910, 18 h
[4] = system: Serratia SOU; assay: as above; type: cell-based; conditions: 37° C., 18 hours incubation
[5] = system: Escherichia coli K-12 LA 290 R64; assay: as above; type: cell-based; conditions: K12LA290R64, 18 h
[6] = system: Staphylococcus aureus 209P; assay: as above; type: cell-based; conditions: 37° C., 18 hours incubation
[7] = system: Salmonella enteritidis 1891; assay: as above; type: cell-based; conditions: Salmonella enterica
[8] = system: Escherichia coli K-12 ML 1410 R81; assay: as above; type: cell-based; conditions: 18 h
[9] = system: Pseudomonas aeruginosa PST1; assay: as above; type: cell-based
[10] = system: Escherichia coli K-12 ML 1630; assay: as above; type: cell-based; conditions: K12ML1630, 37° C., 18 hours incubation
Description: (§1) The minimum inhibitory concentration (mcg/ml) of 1-N-[(S)-4-amino-2-hydroxybutyryl]-5,3',4'-trideoxykanamycin B (abbreviated as AHB-trideoxyKMB), 1-N-[(RS)-3-amino-2-hydroxypropionyl]-5,3',4'-trideoxykanamycin B (abbreviated as AHP-trideoxy-KMB) and 1-N-[(S)-4-amino-2-hydroxybutyryl]-5,3',4',6"-tetradeoxykanamycin B (abbreviated as AHB-tetradeoxyKMB) of the formula (II) according to this invention as well as of the new compound 5,3',4',6"-tetradeoxykanamycin B (abbreviated as tetradeoxyKMB) of the formula (III) according to this invention against various microorganisms were determined according to serial dilution method on a nutrient agar medium at 37° C., the estimation being made after 18 hours incubation. For comparison purpose, the minimum inhibitory concentrations of habekacin were also determined in the same manner as stated above.
(§2) The minimum inhibitory concentrations (mcg/ml) of 1-N-[(S)-4-amino-2-hydroxybutyryl]-5,3',4'-trideoxy-6'-N-methylkanamycin B (abbreviated as AHB-trideoxyMKMB), 1-N-[(RS)-3-amino-2-hydroxypropionyl]-5,3',4'-trideoxy-6'-N-methylkanamycin B (abbreviated as AHP-trideoxyMKMB) and 1-N-[(S)-5-amino-2-hydroxyvaleryl]-5,3',4'-trideoxy-6'-N-methylkanamycin B (abbreviated as AHV-trideoxyMKMB) of the formula (IV) according to this invention as well as of the new compound 5,3',4'-trideoxy-6'-N-methylkanamycin B (abbreviated as trideoxyMKMB) of the formula (V) according to this invention against various microorganisms were determined according to serial dilution method on a nutrient agar medium at 37° C., the estimation being made after 18 hours incubation. For comparison purpose, the minimum inhibitory concentrations of 1-N-[(S)-4-amino-2-hydroxybutyryl]-3',4'-dideoxykanamycin B (ie. habekacin) were also determined in the same manner as stated above.

[11] = system: Shigella sonnei JS11746; assay: as above; type: cell-based; conditions: 37° C., 18 hours incubation
Description: as §1, §2

[12] = system: Escherichia coli K-12 C 600R/35; assay: as above; type: cell-based; conditions: K12C600R/35, 37° C., 18 hours incubation
Description: as §1, §2

[13] = system: Escherichia coli K-12 J5R 11-2; assay: as above; type: cell-based; conditions: K12J5R112, 37° C., 18 hours incubation
Description: as §1, §2

[14] = system: Shigella flexneri 4b JS11811; assay: as above; type: cell-based; conditions: 4BJS11811, 37° C., 18 hours incubation
Description: as §1, §2

[15] = Acute toxicity by intravenous injection in mice; conditions: mouse, in vivo
[16] = system: bacteria; conditions: in words, earlier work / other filings; cited from earlier work
[17] = system: bacteria; assay: Antibacterial activity (stated in words); type: cell-based
[18] = nutrient agar, 37° C., 18 hours incubation, read-out: MIC
[19] = PST1, nutrient agar, 37° C., 18 hours incubation, read-out: MIC
[20] = W677, nutrient agar, 37° C., 18 hours incubation, read-out: MIC

SMILES | MIC [1] [µg/mL] | MIC ([2]; W677, 18 h) [µg/mL] | MIC [3] [µg/mL] | MIC [4] [µg/mL] | MIC [5] [µg/mL] | MIC [6] [µg/mL] | MIC [7, 18] [µg/mL] | MIC [8] [µg/mL] | MIC [9, 19] [µg/mL] | MIC [10] [µg/mL] | MIC [11] [µg/mL] | MIC [12] [µg/mL] | MIC [13] [µg/mL] | MIC [14] [µg/mL] | LD50 [15] [mg/kg] | MIC [2, 20] [µg/mL] | MIC ([7]; 18 h) [µg/mL] | MIC ([9]; PST1, 18 h) [µg/mL] | antibacterial activity [16] | antibacterial activity [17]
CNC[C@@H]1CC[C@@H](N)[C@@H](O[C@H]2C[C@@H](O[C@H]3O[C@H](CO)[C@@H](O)[C@H](N)[C@H]3O)[C@H](NC(=O)[C@@H](O)CCN)C[C@@H]2N)O1 [AHB-trideoxyMKMB, 1-N-[(S)-4-amino-2-hydroxybutyryl]-5,3',4'-trideoxy-6'-N-methylkanamycin B] | 12.5 (≈ 22.7 µM) | 1.56 (≈ 2.83 µM) | 1.56 (≈ 2.83 µM) | 25 (≈ 45.4 µM) | 1.56 (≈ 2.83 µM) | < 0.2 | 0.78 (≈ 1.42 µM) | 1.56 (≈ 2.83 µM) | 12.5 (≈ 22.7 µM) | 1.56 (≈ 2.83 µM) | 3.13 (≈ 5.68 µM) | 1.56 (≈ 2.83 µM) | 1.56 (≈ 2.83 µM) | 0.78 (≈ 1.42 µM) | 50 to 100 |  |  |  |  | 
NCC(O)C(=O)N[C@@H]1C[C@H](N)[C@@H](O[C@H]2O[C@H](CN)CC[C@H]2N)C[C@H]1O[C@H]1O[C@H](CO)[C@@H](O)[C@H](N)[C@H]1O (stereo partly drawn) [AHP-trideoxyKMB, 1-N-[(RS)-3-amino-2-hydroxypropionyl]-5,3',4'-trideoxykanamycin B] | 25 (≈ 47.8 µM) |  | 6.25 (≈ 12 µM) | > 100 | 1.56 (≈ 2.99 µM) | < 0.2 |  |  |  | 3.13 (≈ 5.99 µM) | 6.25 (≈ 12 µM) | 1.56 (≈ 2.99 µM) | 1.56 (≈ 2.99 µM) | 6.25 (≈ 12 µM) | 25 to 50 | 1.56 (≈ 2.99 µM) | 6.25 (≈ 12 µM) | 6.25 (≈ 12 µM) |  | 
CNC[C@@H]1CC[C@@H](N)[C@@H](O[C@H]2C[C@@H](O[C@H]3O[C@H](CO)[C@@H](O)[C@H](N)[C@H]3O)[C@H](NC(=O)[C@@H](O)CCCN)C[C@@H]2N)O1 [AHV-trideoxyMKMB, 1-N-[(S)-5-amino-2-hydroxyvaleryl]-5,3',4'-trideoxy-6'-N-methylkanamycin B] | 25 (≈ 44.3 µM) | 1.56 (≈ 2.76 µM) | 6.25 (≈ 11.1 µM) | 50 (≈ 88.5 µM) | 1.56 (≈ 2.76 µM) | 0.2 (≈ 0.354 µM) |  | 3.13 (≈ 5.54 µM) | 12.5 (≈ 22.1 µM) | 3.13 (≈ 5.54 µM) | 6.25 (≈ 11.1 µM) | 1.56 (≈ 2.76 µM) | 3.13 (≈ 5.54 µM) | 1.56 (≈ 2.76 µM) | 50 to 100 |  | 3.13 (≈ 5.54 µM) |  |  | 
NCC[C@H](O)C(=O)N[C@@H]1C[C@H](N)[C@@H](O[C@H]2O[C@H](CN)CC[C@H]2N)[C@H](O)[C@H]1O[C@H]1O[C@H](CO)[C@@H](O)[C@H](N)[C@H]1O [Habekacin, 1-N-[(S)-4-amino-2-hydroxybutyryl]-3',4'-dideoxykanamycin B, reference compound] | 50 (≈ 90.5 µM) |  | 12.5 (≈ 22.6 µM) | > 100 | 3.13 (≈ 5.66 µM) | 0.39 (≈ 0.706 µM) | 3.13 (≈ 5.66 µM) |  | 25 (≈ 45.2 µM) | 3.13 (≈ 5.66 µM) | 6.25 (≈ 11.3 µM) | 1.56 (≈ 2.82 µM) | 1.56 (≈ 2.82 µM) | 6.25 (≈ 11.3 µM) |  | 3.13 (≈ 5.66 µM) |  |  | effective against dibekacin-resistant bacteria | 
CNC[C@@H]1CC[C@@H](N)[C@@H](O[C@H]2C[C@@H](O[C@H]3O[C@H](CO)[C@@H](O)[C@H](N)[C@H]3O)[C@H](N)C[C@@H]2N)O1 [TrideoxyMKMB, 5,3',4'-trideoxy-6'-N-methylkanamycin B] | > 100 |  | 50 (≈ 111 µM) | > 100 | 25 (≈ 55.6 µM) | 1.56 (≈ 3.47 µM) | 25 (≈ 55.6 µM) | 25 (≈ 55.6 µM) | > 100 | 25 (≈ 55.6 µM) | 25 (≈ 55.6 µM) | 12.5 (≈ 27.8 µM) | 25 (≈ 55.6 µM) | 25 (≈ 55.6 µM) | 50 to 100 | 12.5 (≈ 27.8 µM) |  |  |  | antibacterial activity higher than that of the 5,3',4'-trideoxykanamycin B especially against some resistant strains
CNC[C@@H]1CC[C@@H](N)[C@@H](O[C@H]2C[C@@H](O[C@H]3O[C@H](CO)[C@@H](O)[C@H](N)[C@H]3O)[C@H](NC(=O)C(O)CN)C[C@@H]2N)O1 (stereo partly drawn) [AHP-trideoxyMKMB, 1-N-[(RS)-3-amino-2-hydroxypropionyl]-5,3',4'-trideoxy-6'-N-methylkanamycin B] | 50 (≈ 93.2 µM) | 3.13 (≈ 5.83 µM) | 6.25 (≈ 11.6 µM) | 50 (≈ 93.2 µM) | 3.13 (≈ 5.83 µM) | 0.39 (≈ 0.727 µM) |  | 3.13 (≈ 5.83 µM) | 25 (≈ 46.6 µM) | 3.13 (≈ 5.83 µM) | 6.25 (≈ 11.6 µM) | 1.56 (≈ 2.91 µM) | 3.13 (≈ 5.83 µM) | 3.13 (≈ 5.83 µM) | 50 to 100 |  | 6.25 (≈ 11.6 µM) |  |  | 
C[C@H]1O[C@H](O[C@@H]2C[C@H](O[C@H]3O[C@H](CN)CC[C@H]3N)[C@@H](N)C[C@H]2N)[C@H](O)[C@@H](N)[C@@H]1O [TetradeoxyKMB, 5,3',4',6"-tetradeoxykanamycin B] | > 100 |  | 12.5 (≈ 29.8 µM) | > 100 | 100 (≈ 238 µM) | 3.13 (≈ 7.46 µM) | 25 (≈ 59.6 µM) |  | > 100 | 12.5 (≈ 29.8 µM) | 12.5 (≈ 29.8 µM) | 6.25 (≈ 14.9 µM) | 6.25 (≈ 14.9 µM) | 25 (≈ 59.6 µM) | 25 to 50 | 6.25 (≈ 14.9 µM) |  |  |  | significantly active against some kinds of bacteria
NCC[C@H](O)C(=O)N[C@@H]1C[C@H](N)[C@@H](O[C@H]2O[C@H](CN)CC[C@H]2N)C[C@H]1O[C@H]1O[C@H](CO)[C@@H](O)[C@H](N)[C@H]1O [AHB-trideoxyKMB, 1-N-[(S)-4-amino-2-hydroxybutyryl]-5,3',4'-trideoxykanamycin B] | 6.25 (≈ 11.6 µM) |  | 3.13 (≈ 5.83 µM) | 100 (≈ 186 µM) | 0.78 (≈ 1.45 µM) | < 0.2 |  | 1.56 (≈ 2.91 µM) | 6.25 (≈ 11.6 µM) | 1.56 (≈ 2.91 µM) | 3.13 (≈ 5.83 µM) | 0.78 (≈ 1.45 µM) | 0.78 (≈ 1.45 µM) | 3.13 (≈ 5.83 µM) | 25 to 50 | 0.78 (≈ 1.45 µM) | 3.13 (≈ 5.83 µM) |  |  | 
C[C@H]1O[C@H](O[C@@H]2C[C@H](O[C@H]3O[C@H](CN)CC[C@H]3N)[C@@H](N)C[C@H]2NC(=O)[C@@H](O)CCN)[C@H](O)[C@@H](N)[C@@H]1O [AHB-tetradeoxyKMB, 1-N-[(S)-4-amino-2-hydroxybutyryl]-5,3',4',6"-tetradeoxykanamycin B] | 25 (≈ 48 µM) |  | 1.56 (≈ 3 µM) | 100 (≈ 192 µM) | 0.78 (≈ 1.5 µM) | < 0.2 |  |  | 6.25 (≈ 12 µM) | 1.56 (≈ 3 µM) | 3.13 (≈ 6.01 µM) | 0.78 (≈ 1.5 µM) | 0.78 (≈ 1.5 µM) | 1.56 (≈ 3 µM) | 25 to 50 | 0.78 (≈ 1.5 µM) | 3.13 (≈ 6.01 µM) |  |  | 
